In patent US20110039721A1, “METHOD FOR PREDICTION ABOUT CARCINOGENICITY OF SUBSTANCE IN RODENT” (Chemicals Evaluation and Research Institute, priority 2007, published 2011):

How the values were obtained:
[1] = system: mRNA expressed from the genes (A) to (D) in rat liver; test: Behavior of genes (mRNA expression level, oligo-DNA microarray) in rat liver after 28-day oral administration; assay type: in vivo
In short: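 Rat liver RNA after 28 days of daily gavage dosing (male F344, 5 weeks old, four per group). A change reaching 1.5-fold, or 1/1.5, against solvent control scores as significant; opposite direction versus another carcinogen scores as not significant.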

[2] = system: rodent; conditions: in vivo; cited from earlier work
[3] = system: liver; conditions: in vivo; cited from earlier work
[4] = gene group (A), Unigene No. Rn.167075, mRNA vs vehicle control group
[5] = gene group (C), Unigene No. Rn.120914, mRNA vs vehicle control group
[6] = (C), Unigene Rn.120914, defined direction +, rat liver, oral once daily 28 days

C=CCc1ccc2c(c1)OCO2 [TS025, Safrole]
C+: Carcinogenicity [2]
+: Behavior of gene caused by administration of chemical substance, Gene No. 4846 ([1]; gene group (A), Unigene No. Rn.144554, mRNA vs vehicle control group) | Behavior of gene caused by administration of chemical substance, Gene No. 4218 [1, 4] | Behavior of gene caused by administration of chemical substance, Gene No. 6182 ([1]; gene group (A), Unigene No. Rn.5834, mRNA vs vehicle control group) | Behavior of gene caused by administration of chemical substance, Gene No. 5600 ([1]; gene group (A), Unigene No. Rn.9836, mRNA vs vehicle control group) | Behavior of gene caused by administration of chemical substance, Gene No. 1494 ([1]; gene group (B), Unigene No. Rn.1430, mRNA vs vehicle control group) | Behavior of gene caused by administration of chemical substance, Gene No. 2045 ([1]; gene group (B), Unigene No. Rn.19329, mRNA vs vehicle control group) | Behavior of gene caused by administration of chemical substance, Gene No. 2203 ([1]; gene group (B), Unigene No. Rn.21240, mRNA vs vehicle control group) | Behavior of gene caused by administration of chemical substance, Gene No. 533 ([1]; gene group (C), Unigene No. Rn.106184, mRNA vs vehicle control group) | Behavior of gene caused by administration of chemical substance, Gene No. 725 ([1]; gene group (C), Unigene No. Rn.108075, mRNA vs vehicle control group) | Behavior of gene caused by administration of chemical substance, Gene No. 4973 ([1]; gene group (C), Unigene No. Rn.118529, mRNA vs vehicle control group) | Behavior of gene caused by administration of chemical substance, Gene No. 4095 ([1]; gene group (C), Unigene No. Rn.119024, mRNA vs vehicle control group) | Behavior of gene caused by administration of chemical substance, Gene No. 6303 ([1]; gene group (C), Unigene No. Rn.123063, mRNA vs vehicle control group) | Behavior of gene caused by administration of chemical substance, Gene No. 1741 ([1]; gene group (C), Unigene No. Rn.1647, mRNA vs vehicle control group) | Behavior of gene caused by administration of chemical substance, Gene No. 154 ([1]; gene group (C), Unigene No. Rn.185941, mRNA vs vehicle control group) | Behavior of gene caused by administration of chemical substance, Gene No. 813 ([1]; gene group (C), Unigene No. Rn.201760, mRNA vs vehicle control group) | Behavior of gene caused by administration of chemical substance, Gene No. 3776 ([1]; gene group (C), Unigene No. Rn.43232, mRNA vs vehicle control group) | Behavior of gene caused by administration of chemical substance, Gene No. 6742 ([1]; gene group (C), Unigene No. Rn.9779, mRNA vs vehicle control group) | Behavior of gene caused by administration of chemical substance, Gene No. 5634 ([1]; gene group (C), Unigene No. Rn.9862, mRNA vs vehicle control group)
−: Behavior of gene caused by administration of chemical substance, Gene No. 2026 [1, 4] | Behavior of gene caused by administration of chemical substance, Gene No. 1163 ([1]; gene group (C), Unigene No. Rn.11766, mRNA vs vehicle control group) | Behavior of gene caused by administration of chemical substance, Gene No. 1334 [1, 5] | Behavior of gene caused by administration of chemical substance, Gene No. 6620 [1, 5] | Behavior of gene caused by administration of chemical substance, Gene No. 5878 ([1]; gene group (C), Unigene No. Rn.143213, mRNA vs vehicle control group) | Behavior of gene caused by administration of chemical substance, Gene No. 1131 ([1]; gene group (C), Unigene No. Rn.144946, mRNA vs vehicle control group) | Behavior of gene caused by administration of chemical substance, Gene No. 1562 ([1]; gene group (C), Unigene No. Rn.14744, mRNA vs vehicle control group) | Behavior of gene caused by administration of chemical substance, Gene No. 893 ([1]; gene group (C), Unigene No. Rn.164817, mRNA vs vehicle control group) | Behavior of gene caused by administration of chemical substance, Gene No. 6026 ([1]; gene group (C), Unigene No. Rn.167685, mRNA vs vehicle control group) | Behavior of gene caused by administration of chemical substance, Gene No. 1993 ([1]; gene group (C), Unigene No. Rn.18728, mRNA vs vehicle control group) | Behavior of gene caused by administration of chemical substance, Gene No. 2494 ([1]; gene group (C), Unigene No. Rn.23969, mRNA vs vehicle control group) | Behavior of gene caused by administration of chemical substance, Gene No. 2546 ([1]; gene group (C), Unigene No. Rn.24561, mRNA vs vehicle control group) | Behavior of gene caused by administration of chemical substance, Gene No. 3929 ([1]; gene group (C), Unigene No. Rn.4620, mRNA vs vehicle control group) | Behavior of gene caused by administration of chemical substance, Gene No. 1119 ([1]; gene group (C), Unigene No. Rn.9757, mRNA vs vehicle control group) | Behavior of gene caused by administration of chemical substance, Gene No. 5726 ([1]; gene group (D), Unigene No. Rn.9939, mRNA vs vehicle control group)
Cr+: Liver carcinogenicity [3]

c1ccoc1 [TS028, Furan]
−: Behavior of gene caused by administration of chemical substance, Gene No. 2045 ([1]; (B), Unigene Rn.19329, defined direction +, rat liver, oral once daily 28 days) | Behavior of gene caused by administration of chemical substance, Gene No. 2203 ([1]; (B), Unigene Rn.21240, defined direction +, rat liver, oral once daily 28 days) | Behavior of gene caused by administration of chemical substance, Gene No. 725 ([1]; (C), Unigene Rn.108075, defined direction −, rat liver, oral once daily 28 days) | Behavior of gene caused by administration of chemical substance, Gene No. 1163 ([1]; (C), Unigene Rn.11766, defined direction +, rat liver, oral once daily 28 days) | Behavior of gene caused by administration of chemical substance, Gene No. 1334 [1, 6] | Behavior of gene caused by administration of chemical substance, Gene No. 6620 [1, 6] | Behavior of gene caused by administration of chemical substance, Gene No. 1131 ([1]; (C), Unigene Rn.144946, defined direction −, rat liver, oral once daily 28 days) | Behavior of gene caused by administration of chemical substance, Gene No. 893 ([1]; (C), Unigene Rn.164817, defined direction +, rat liver, oral once daily 28 days) | Behavior of gene caused by administration of chemical substance, Gene No. 6026 ([1]; (C), Unigene Rn.167685, defined direction −, rat liver, oral once daily 28 days) | Behavior of gene caused by administration of chemical substance, Gene No. 2494 ([1]; (C), Unigene Rn.23969, defined direction +, rat liver, oral once daily 28 days) | Behavior of gene caused by administration of chemical substance, Gene No. 2546 ([1]; (C), Unigene Rn.24561, defined direction −, rat liver, oral once daily 28 days) | Behavior of gene caused by administration of chemical substance, Gene No. 5726 ([1]; (D), Unigene Rn.9939, defined direction −, rat liver, oral once daily 28 days)
+: Behavior of gene caused by administration of chemical substance, Gene No. 4846 ([1]; (A), Unigene Rn.144554, defined direction +, rat liver, oral once daily 28 days) | Behavior of gene caused by administration of chemical substance, Gene No. 4218 ([1]; (A), Unigene Rn.167075, defined direction +, rat liver, oral once daily 28 days, significant = 1.5 times or more or 1/1.5 or less of control) | Behavior of gene caused by administration of chemical substance, Gene No. 2026 ([1]; (A), Unigene Rn.167075, defined direction −, rat liver, oral once daily 28 days) | Behavior of gene caused by administration of chemical substance, Gene No. 6182 ([1]; (A), Unigene Rn.5834, defined direction +, rat liver, oral once daily 28 days) | Behavior of gene caused by administration of chemical substance, Gene No. 5600 ([1]; (A), Unigene Rn.9836, defined direction +, rat liver, oral once daily 28 days) | Behavior of gene caused by administration of chemical substance, Gene No. 1494 ([1]; (B), Unigene Rn.1430, defined direction −, rat liver, oral once daily 28 days) | Behavior of gene caused by administration of chemical substance, Gene No. 533 ([1]; (C), Unigene Rn.106184, defined direction +, rat liver, oral once daily 28 days) | Behavior of gene caused by administration of chemical substance, Gene No. 4973 ([1]; (C), Unigene Rn.118529, defined direction −, rat liver, oral once daily 28 days) | Behavior of gene caused by administration of chemical substance, Gene No. 4095 ([1]; (C), Unigene Rn.119024, defined direction −, rat liver, oral once daily 28 days) | Behavior of gene caused by administration of chemical substance, Gene No. 6303 ([1]; (C), Unigene Rn.123063, defined direction −, rat liver, oral once daily 28 days) | Behavior of gene caused by administration of chemical substance, Gene No. 5878 ([1]; (C), Unigene Rn.143213, defined direction −, rat liver, oral once daily 28 days) | Behavior of gene caused by administration of chemical substance, Gene No. 1562 ([1]; (C), Unigene Rn.14744, defined direction −, rat liver, oral once daily 28 days) | Behavior of gene caused by administration of chemical substance, Gene No. 1741 ([1]; (C), Unigene Rn.1647, defined direction −, rat liver, oral once daily 28 days) | Behavior of gene caused by administration of chemical substance, Gene No. 154 ([1]; (C), Unigene Rn.185941, defined direction −, rat liver, oral once daily 28 days) | Behavior of gene caused by administration of chemical substance, Gene No. 1993 ([1]; (C), Unigene Rn.18728, defined direction −, rat liver, oral once daily 28 days) | Behavior of gene caused by administration of chemical substance, Gene No. 813 ([1]; (C), Unigene Rn.201760, defined direction +, rat liver, oral once daily 28 days) | Behavior of gene caused by administration of chemical substance, Gene No. 3776 ([1]; (C), Unigene Rn.43232, defined direction −, rat liver, oral once daily 28 days) | Behavior of gene caused by administration of chemical substance, Gene No. 3929 ([1]; (C), Unigene Rn.4620, defined direction +, rat liver, oral once daily 28 days) | Behavior of gene caused by administration of chemical substance, Gene No. 1119 ([1]; (C), Unigene Rn.9757, defined direction +, rat liver, oral once daily 28 days) | Behavior of gene caused by administration of chemical substance, Gene No. 6742 ([1]; (C), Unigene Rn.9779, defined direction +, rat liver, oral once daily 28 days) | Behavior of gene caused by administration of chemical substance, Gene No. 5634 ([1]; (C), Unigene Rn.9862, defined direction −, rat liver, oral once daily 28 days)
C+: Carcinogenicity [2]
Cr+: Liver carcinogenicity [3]
